Test results from ChEMBL document CHEMBL5465560, “Selectivity Literature for EUbOPEN Chemogenomic Library” (2024).
Values belong to the compound of their own block, whether it stands above or below them.

Key:
[1] = target: T1, Cytoplasmic tyrosine-protein kinase BMX (Homo sapiens) (UniProt P51813); conditions: at 10 µM
T1 sequence (whole entry): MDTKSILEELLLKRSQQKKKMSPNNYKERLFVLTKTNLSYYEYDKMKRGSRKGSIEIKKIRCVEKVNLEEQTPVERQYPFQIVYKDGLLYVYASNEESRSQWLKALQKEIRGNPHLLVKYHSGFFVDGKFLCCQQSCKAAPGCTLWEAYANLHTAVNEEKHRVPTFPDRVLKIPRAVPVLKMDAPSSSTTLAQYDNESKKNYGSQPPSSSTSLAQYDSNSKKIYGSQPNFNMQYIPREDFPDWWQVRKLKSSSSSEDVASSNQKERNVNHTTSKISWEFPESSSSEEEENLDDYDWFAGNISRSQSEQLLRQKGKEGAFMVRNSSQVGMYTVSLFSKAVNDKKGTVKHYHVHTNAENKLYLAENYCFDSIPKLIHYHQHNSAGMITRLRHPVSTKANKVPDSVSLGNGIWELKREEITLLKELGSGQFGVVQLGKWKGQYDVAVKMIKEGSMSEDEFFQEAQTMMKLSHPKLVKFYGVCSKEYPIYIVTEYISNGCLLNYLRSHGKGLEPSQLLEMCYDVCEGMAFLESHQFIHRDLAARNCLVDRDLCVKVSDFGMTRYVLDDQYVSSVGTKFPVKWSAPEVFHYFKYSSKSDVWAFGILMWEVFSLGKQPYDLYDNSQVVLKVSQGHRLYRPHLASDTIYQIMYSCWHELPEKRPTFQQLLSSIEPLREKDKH

[2] = target: Mitogen-activated protein kinase kinase kinase 20 (Homo sapiens) (UniProt Q9NYL2); assay: Selectivity interaction (Kinase panel (Invitrogen)) EUB0000639a MAP3K20; conditions: at 200 nM
Insulin receptor = Insulin receptor (Homo sapiens, UniProt P06213); assay: Selectivity interaction (ProQinase) EUB0000171b INSR; conditions: at 1 µM
[3] = target: Protein kinase C beta type (Homo sapiens, UniProt P05771); assay: Selectivity interaction (ProQinase) EUB0000171b PRKCB; conditions: at 1 µM
[4] = target: T2, Peripheral plasma membrane protein CASK (Homo sapiens) (UniProt O14936); assay: Selectivity interaction (Kinase panel (DSF assay)) EUB0001558a CASK
T2 sequence (whole entry): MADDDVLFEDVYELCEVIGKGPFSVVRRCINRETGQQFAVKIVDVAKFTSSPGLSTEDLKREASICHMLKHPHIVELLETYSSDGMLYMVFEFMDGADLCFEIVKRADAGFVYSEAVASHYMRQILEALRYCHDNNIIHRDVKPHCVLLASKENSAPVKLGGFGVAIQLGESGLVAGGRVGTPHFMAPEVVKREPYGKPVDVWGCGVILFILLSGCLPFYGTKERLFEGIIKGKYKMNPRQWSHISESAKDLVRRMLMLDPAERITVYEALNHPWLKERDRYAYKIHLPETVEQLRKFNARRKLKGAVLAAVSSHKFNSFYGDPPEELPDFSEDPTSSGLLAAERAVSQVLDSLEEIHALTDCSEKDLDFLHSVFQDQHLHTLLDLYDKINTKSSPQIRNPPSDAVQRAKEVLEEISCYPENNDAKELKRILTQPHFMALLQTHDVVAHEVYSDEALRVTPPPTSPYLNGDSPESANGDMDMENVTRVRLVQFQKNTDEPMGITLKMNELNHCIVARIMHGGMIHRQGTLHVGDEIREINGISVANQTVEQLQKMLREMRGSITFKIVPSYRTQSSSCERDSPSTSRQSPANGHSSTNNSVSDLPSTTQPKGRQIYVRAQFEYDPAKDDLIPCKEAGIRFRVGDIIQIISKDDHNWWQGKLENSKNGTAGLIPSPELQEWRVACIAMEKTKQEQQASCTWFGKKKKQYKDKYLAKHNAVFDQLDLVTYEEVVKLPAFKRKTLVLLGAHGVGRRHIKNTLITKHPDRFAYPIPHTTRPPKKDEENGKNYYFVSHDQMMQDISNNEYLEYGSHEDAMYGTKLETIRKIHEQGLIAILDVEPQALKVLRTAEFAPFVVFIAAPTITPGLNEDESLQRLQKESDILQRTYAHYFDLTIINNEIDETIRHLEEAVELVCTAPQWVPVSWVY

[5] = target: SRSF protein kinase 3 (Homo sapiens) (UniProt Q9UPE1); assay: Selectivity interaction (KinomeScan (DiscoverX)) EUB0000045b SRPK3
[6] = target: T3, Ephrin type-B receptor 2 (Homo sapiens) (UniProt P29323); assay: Selectivity interaction (KinomeScan (DiscoverX)) EUB0000229b EPHB2; conditions: at 10 µM
T3 sequence (whole entry): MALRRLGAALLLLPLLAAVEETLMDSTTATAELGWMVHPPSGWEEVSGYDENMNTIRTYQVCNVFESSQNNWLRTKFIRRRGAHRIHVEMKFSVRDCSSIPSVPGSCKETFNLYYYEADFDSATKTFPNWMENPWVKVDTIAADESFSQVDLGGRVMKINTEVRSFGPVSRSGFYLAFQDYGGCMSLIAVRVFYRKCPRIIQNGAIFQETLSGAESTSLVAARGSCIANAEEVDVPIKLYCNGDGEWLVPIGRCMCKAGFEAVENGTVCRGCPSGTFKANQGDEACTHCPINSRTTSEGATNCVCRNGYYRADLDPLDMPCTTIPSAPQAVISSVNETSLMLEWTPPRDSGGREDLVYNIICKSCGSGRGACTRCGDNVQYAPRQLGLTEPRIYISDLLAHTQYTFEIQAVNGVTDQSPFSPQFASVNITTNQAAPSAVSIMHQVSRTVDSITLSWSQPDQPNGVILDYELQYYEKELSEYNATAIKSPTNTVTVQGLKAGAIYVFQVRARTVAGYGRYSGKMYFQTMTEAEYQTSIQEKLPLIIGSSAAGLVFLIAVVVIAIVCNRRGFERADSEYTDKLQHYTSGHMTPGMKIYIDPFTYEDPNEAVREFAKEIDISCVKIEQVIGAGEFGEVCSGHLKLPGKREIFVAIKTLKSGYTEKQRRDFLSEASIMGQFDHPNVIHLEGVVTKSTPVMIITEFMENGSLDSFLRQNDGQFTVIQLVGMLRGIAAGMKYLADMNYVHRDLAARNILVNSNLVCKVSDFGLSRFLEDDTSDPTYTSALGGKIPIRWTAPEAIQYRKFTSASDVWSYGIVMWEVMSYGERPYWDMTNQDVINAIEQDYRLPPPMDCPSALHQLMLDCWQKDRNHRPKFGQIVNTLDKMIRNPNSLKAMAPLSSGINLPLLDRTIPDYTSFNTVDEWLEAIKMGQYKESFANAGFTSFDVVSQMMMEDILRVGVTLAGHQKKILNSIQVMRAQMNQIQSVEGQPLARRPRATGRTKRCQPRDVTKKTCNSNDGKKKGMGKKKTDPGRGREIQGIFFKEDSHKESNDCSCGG

[7] = target: Serine/threonine-protein kinase NIM1 (Homo sapiens, UniProt Q8IY84); assay: Selectivity interaction (KinomeScan (DiscoverX)) EUB0000092b NIM1K; conditions: at 10 µM
Chain of Serine/threonine-protein kinase NIM1 (Q8IY84 whole entry): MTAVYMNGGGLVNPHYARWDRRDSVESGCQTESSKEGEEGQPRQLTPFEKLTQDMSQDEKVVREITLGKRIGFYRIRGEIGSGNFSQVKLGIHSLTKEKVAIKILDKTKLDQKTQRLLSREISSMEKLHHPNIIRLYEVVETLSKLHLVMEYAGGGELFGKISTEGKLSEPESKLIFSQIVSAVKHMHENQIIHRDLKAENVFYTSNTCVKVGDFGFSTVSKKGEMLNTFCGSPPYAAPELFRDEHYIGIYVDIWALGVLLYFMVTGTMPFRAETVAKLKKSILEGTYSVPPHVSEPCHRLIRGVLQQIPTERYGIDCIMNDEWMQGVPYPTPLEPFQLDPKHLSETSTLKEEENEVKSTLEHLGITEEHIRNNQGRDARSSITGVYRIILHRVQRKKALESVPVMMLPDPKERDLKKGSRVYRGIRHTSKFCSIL

Chain of SRSF protein kinase 3 (Homo sapiens) (Q9UPE1 whole entry): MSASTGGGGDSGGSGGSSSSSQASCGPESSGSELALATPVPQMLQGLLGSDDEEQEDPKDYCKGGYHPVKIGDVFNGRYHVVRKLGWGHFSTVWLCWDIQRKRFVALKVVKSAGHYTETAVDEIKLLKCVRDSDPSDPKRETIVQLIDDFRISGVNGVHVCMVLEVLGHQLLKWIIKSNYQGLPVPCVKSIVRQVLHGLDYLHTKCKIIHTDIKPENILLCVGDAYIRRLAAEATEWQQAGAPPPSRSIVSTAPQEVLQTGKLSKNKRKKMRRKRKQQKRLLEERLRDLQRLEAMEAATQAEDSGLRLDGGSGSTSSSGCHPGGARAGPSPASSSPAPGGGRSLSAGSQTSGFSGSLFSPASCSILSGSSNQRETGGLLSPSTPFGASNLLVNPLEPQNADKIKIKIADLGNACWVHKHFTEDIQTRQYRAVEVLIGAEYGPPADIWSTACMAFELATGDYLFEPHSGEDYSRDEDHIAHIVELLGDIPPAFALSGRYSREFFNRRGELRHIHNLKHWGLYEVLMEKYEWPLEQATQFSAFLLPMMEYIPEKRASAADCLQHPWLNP
Chain of Mitogen-activated protein kinase kinase kinase 20 (Homo sapiens) (Q9NYL2 2-800 limits assumed): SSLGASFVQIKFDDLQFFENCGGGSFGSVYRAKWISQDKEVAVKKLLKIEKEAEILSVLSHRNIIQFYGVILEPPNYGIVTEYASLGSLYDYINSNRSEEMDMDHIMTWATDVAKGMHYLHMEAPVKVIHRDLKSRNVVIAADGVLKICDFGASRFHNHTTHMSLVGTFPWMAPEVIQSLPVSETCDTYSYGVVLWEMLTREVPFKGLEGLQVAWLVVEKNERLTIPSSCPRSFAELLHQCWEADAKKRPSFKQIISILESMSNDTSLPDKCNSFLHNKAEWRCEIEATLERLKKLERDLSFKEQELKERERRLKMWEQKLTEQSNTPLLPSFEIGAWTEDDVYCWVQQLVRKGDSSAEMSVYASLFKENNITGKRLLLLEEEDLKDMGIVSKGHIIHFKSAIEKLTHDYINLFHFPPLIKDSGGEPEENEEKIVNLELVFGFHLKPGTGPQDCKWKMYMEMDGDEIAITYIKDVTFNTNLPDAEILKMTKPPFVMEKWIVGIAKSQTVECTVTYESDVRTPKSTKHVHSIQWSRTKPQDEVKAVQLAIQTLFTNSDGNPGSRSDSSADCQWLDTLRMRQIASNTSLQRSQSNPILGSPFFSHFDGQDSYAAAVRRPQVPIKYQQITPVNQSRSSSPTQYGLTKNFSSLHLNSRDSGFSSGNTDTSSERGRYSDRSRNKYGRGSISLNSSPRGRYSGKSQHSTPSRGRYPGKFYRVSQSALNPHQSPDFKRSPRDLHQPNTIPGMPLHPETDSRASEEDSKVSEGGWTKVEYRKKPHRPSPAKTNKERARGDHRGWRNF
Chain of Insulin receptor (P06213 28-758 limits assumed): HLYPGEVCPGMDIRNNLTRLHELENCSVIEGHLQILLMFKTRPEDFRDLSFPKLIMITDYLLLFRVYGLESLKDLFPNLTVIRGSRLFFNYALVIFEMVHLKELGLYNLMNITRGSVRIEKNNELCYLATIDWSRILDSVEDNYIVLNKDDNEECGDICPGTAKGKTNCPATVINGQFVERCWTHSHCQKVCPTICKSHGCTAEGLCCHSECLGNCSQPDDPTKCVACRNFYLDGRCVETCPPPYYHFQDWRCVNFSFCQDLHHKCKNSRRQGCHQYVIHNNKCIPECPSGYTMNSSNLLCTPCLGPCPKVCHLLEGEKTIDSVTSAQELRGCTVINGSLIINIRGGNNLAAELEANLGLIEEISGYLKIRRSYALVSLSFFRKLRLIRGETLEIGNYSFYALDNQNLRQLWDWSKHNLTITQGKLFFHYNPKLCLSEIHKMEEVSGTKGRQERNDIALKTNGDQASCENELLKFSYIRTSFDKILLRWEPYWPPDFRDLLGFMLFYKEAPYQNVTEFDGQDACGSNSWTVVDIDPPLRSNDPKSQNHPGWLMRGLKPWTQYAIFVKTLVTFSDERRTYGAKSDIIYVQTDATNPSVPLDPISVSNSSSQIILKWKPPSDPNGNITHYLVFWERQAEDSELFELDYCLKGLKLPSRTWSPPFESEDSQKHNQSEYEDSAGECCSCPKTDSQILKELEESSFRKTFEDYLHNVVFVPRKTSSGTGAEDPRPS
Chain of Insulin receptor (P06213 763-1382 limits assumed): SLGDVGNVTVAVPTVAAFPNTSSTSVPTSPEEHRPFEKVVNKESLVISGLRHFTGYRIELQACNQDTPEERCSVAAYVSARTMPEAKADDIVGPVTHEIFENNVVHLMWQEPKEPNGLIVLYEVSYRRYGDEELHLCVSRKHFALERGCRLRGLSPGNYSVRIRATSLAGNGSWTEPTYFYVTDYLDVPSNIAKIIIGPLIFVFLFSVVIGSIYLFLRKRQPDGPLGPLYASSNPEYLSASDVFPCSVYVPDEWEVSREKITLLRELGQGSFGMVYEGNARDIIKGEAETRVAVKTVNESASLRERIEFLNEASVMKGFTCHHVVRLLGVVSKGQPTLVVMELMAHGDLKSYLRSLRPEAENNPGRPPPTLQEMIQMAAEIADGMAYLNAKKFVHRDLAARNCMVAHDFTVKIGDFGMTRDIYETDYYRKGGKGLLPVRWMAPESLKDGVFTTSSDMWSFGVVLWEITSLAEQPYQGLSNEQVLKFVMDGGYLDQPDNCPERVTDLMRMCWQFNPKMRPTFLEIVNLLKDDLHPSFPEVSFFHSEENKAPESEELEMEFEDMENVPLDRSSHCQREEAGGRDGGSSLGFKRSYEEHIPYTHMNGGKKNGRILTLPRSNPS
Chain of Protein kinase C beta type (P05771 2-671 limits assumed): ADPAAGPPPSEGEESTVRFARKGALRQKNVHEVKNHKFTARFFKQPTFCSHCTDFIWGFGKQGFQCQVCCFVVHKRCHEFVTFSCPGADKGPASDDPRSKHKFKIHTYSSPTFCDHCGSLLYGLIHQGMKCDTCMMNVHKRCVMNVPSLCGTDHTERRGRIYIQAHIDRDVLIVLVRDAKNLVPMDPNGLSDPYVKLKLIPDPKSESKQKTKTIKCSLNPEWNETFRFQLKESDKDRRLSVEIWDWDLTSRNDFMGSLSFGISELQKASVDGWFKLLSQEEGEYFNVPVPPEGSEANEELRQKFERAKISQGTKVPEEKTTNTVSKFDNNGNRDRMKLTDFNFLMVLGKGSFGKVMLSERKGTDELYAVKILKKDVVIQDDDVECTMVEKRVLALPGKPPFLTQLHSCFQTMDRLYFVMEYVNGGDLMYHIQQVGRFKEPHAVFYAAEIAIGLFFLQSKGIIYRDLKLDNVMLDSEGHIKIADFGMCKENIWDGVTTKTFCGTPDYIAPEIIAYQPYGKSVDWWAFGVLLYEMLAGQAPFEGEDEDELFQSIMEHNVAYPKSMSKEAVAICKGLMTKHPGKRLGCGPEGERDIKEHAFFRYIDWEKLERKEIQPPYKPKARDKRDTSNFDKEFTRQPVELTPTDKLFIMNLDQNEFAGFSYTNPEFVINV

% of control [1]: 100%
SMILES: CCN(CC)CCCCNc1ncc2cc(-c3cc(OC)cc(OC)c3)c(NC(=O)NC(C)(C)C)nc2n1

% of inhibition [2]: 1.12%
SMILES: CC[C@@H]1[C@H](F)C(=O)N[C@@H]1COc1nccc2cc(C(N)=O)c(OC)cc12 [ZIMLOVISERTIB]

% of control (Insulin receptor): 81%
% of control [3]: 103%
SMILES: C=CC(=O)Nc1cccc(C(=O)Nc2ccc(Nc3cc(-c4[nH]c(SC)nc4C)ccn3)cc2)c1

SMILES: CC(C)(O)[C@H](F)CN1Cc2cc(NC(=O)c3cnn4cccnc34)c(N3CCOCC3)cc2C1=O
dTM [4]: -0.5 K

SMILES: C=CC(=O)Nc1cc(-n2c(=O)ccc3cnc4ccc(-c5ccc(NS(C)(=O)=O)cc5)cc4c32)ccc1C
% of control ([5]; at 1 µM): 100%
% of control ([5]; at 10 µM): 67%

SMILES: COc1cc(N(C)c2ccnc3ccc(C(F)(F)F)cc23)cc(OC)c1OC
% binding [6]: 93%

SMILES: CCC(=O)N1CCN(c2ccc(-n3c(=O)ccc4cnc5ccc(-c6cnc7ccccc7c6)cc5c43)cc2C(F)(F)F)CC1
% of control [7]: 84%
